The results in this text go back to patent US8512678B2, “Non-invasive, in vivo fluorescent imaging of the nervous system in whole living animal” (priority 2005, dated 2013).

Data set [1] concerns GFAP-GFP transgene. Description: Non-invasive in vivo neural imaging of GFAP-GFP transgenic neonatal mice (relative fluorescence, IVIS). On the set-up: species or system mouse. The following applies: for increase in relative fluorescence (RF), mean, compared to 0 hr: 6 hr after treatment; for increase in relative fluorescence (RF), mean, over the control group: 6 hr post-treatment, P<0.01. From the text: The generation and genotyping of the transgenic GFAP-GFP mice were done as previously described (Zhuo et al., 1997). Neonatal mice of FVB/N background at 4 days of age, weighing 2.0 g-2.5 g were used in the present study. Animal husbandry was provided by National University of Singapore animal holding unit facility. The experimental protocol covering the current study was approved by the Institutional Animal Care and Use Committee.
The neonatal mice received a single subcutaneous (sc) injection of 2′-CH3-MPTP (12 mg/kg in saline) at 0 hour. Saline was used as a vehicle for the control group. Neural imaging was subsequently performed at 2 hr, 4 hr, 6 hr and 8 hr post-treatment.
Non-invasive imaging was conducted using an IVIS Imaging System 100 Series (Xenogen Corp., Alameda, Calif., U.S.A.). A 2′-CH3-MPTP-treated pair comprising of a transgenic and a non-transgenic neonatal mouse was positioned beside one another and held in position without anesthesia by physically restraining the mice on the lower back using tape. […] Subsequently, the pair of neonatal mice were fluorescently imaged with the GFP filter set equipped with the IVIS system. The image acquisition time was ten seconds. The same procedure was applied on the control pair injected with saline as well. Result of the neurotoxic effect of 2′-CH3-MPTP on the mice was expressed as relative fluorescence (RF), a ratio between the total GFP fluorescent signals detected from the region of interest (ROI) in transgenic (Tg) mouse and the tissue autofluorescence signals from the ROI in non-transgenic (nTg) mouse (TgROI/nTgROI). The area of the ROI for both mice is exactly the same and is identical throughout all the ROI used in the study to quantify the radiances. To minimize any variations due to the imaging system, three images were captured for each pair of treated and control mice and the mean value derived used as the quantitative reading for that particular pair. The values of the control (n=5 pairs of mice) and treated groups (n=5 pairs of mice) were expressed as means±SEM and statistical significance was evaluated using Student's two-tailed paired t-test.
The neurotoxin used was 2′-CH3-MPTP.
The neurotoxins used were 2′-CH3-MPTP and Kainic Acid (KA). […] KA was used in dosages 2 mg/kg with one injection. All injections were carried out subcutaneously.

Data set [2] has as its system tyrosine hydroxylase (TH) immuno-positive dopaminergic neurons. Nature of the data set: TH immunostaining in the substantia nigra compact (SNC). Format: in vivo, mouse. The following applies: 6 hr after 12 mg/kg sc, neonatal mice. The method, then: (§1) In order to determine whether the photons were being emitted from the astrocytes in the CNS, the brains were harvested and fixed with 4% paraformaldehyde in 0.1 M phosphate buffer saline (PBS, pH 7.4) for 4 hr at 4° C. The brains were then washed three times in PBS with an incubation time of 15 min each time before soaking in 30% sucrose overnight at 4° C. All brains were embedded in freezing medium after immersing the tissues in liquid nitrogen prior to mounting and sectioning them using a cryostat (Leica Microsystems, Nussloch GmbH; CM-3050S). Coronal cryosections, 20 μm in thickness of the substantia nigra (bregma −3.16 mm, interaural 0.64 mm) were used for immunohistochemistry according to the Atlas of Mouse brain (Franklin and Paxinos, 2001). Each of the control and treated group contained 4 animals […].
For tyrosine hydroxylase (TH) and GFAP immunostaining, a rabbit anti-TH polyclonal antibody (Chemicon International, Temecula, Calif., USA; Ab-152) and a rabbit anti-GFAP polyclonal antibody (DakoCytomation, Denmark; Z-0334) were used. […] After another three times 15 min rinse in 1×PBS, the sections were coverslipped in 10 μl of the fluorescence medium and viewed under the confocal laser scanning microscope (Olympus Optical Co. Ltd. Tokyo, Japan; IX-71).

Data set [3] deals with GFP expression in the astrocytes. Nature of the data set: Confocal imaging of endogenous GFP with GFAP immunostaining in brain cryosections. Format: in vivo, mouse. The following applies: for GFP expression in the astrocytes: Tg mice. The method, then: as §1
For tyrosine hydroxylase (TH) and GFAP immunostaining, a rabbit anti-TH polyclonal antibody (Chemicon International, Temecula, Calif., USA; Ab-152) and a rabbit anti-GFAP polyclonal antibody (DakoCytomation, Denmark; Z-0334) were used. The cryosections were washed for 5 min in 0.15 M 1×PBS followed by incubating for 4 hr at 4° C. in blocking solution of PBS containing 0.1% (v/v) Triton X-100 and 10% nonimmune goat serum. The cryosections were then washed in 0.15 M 1×PBS three times, each for 15 min. The brain sections were then incubated overnight with anti-TH antibody (1:200) and anti-GFAP antibody (1:200), in 1×PBS containing 0.01% (v/v) Triton X-100 and 1% nonimmune goat serum at 4° C. After a three times 15 min rinse in 1×PBS, the sections were incubated with Texas-red conjugated goat polyclonal to rabbit secondary IgG antibody (Abcam Ltd, Cambridge, U.K.; Ab-7088) at 1:100 dilution in PBS containing 0.01% (v/v) Triton X-100 and 1% nonimmune goat serum for 2 hr at room temperature. After another three times 15 min rinse in 1×PBS, the sections were coverslipped in 10 μl of the fluorescence medium and viewed under the confocal laser scanning microscope (Olympus Optical Co. Ltd. Tokyo, Japan; IX-71).

For data set [4], the system named is GFAP gene expression. Nature of the data set: Real-time RT-PCR of brain RNA, GFAP gene expression. Type of data set: in vivo, mouse. The following applies: transgenic mice, 2 hours after treatment, 1×2 mg/kg, p<0.01. How it is done: (§2) […] The brain was removed and then lysed in buffer RA1 and β-mercaptoethanol. Total RNA from the brain was isolated using NucleoSpin® RNA II kit. Total RNA was reverse-transcribed with random hexamers and real-time RT-PCR was performed on the cDNA to quantify gene expression.
(§3) The brain was removed and then lysed in buffer RA1 and β-mercaptoethanol. Total RNA from the brain was isolated using NucleoSpin® RNA II kit. Total RNA was reverse-transcribed with random hexamers and real-time RT-PCR was performed on the cDNA to quantify gene expression. The same procedure is carried out for mice treated with KA (1×2 mg/kg).

The test system of data set [5] is GFP gene expression. Description: Real-time RT-PCR of brain RNA, GFP gene expression. Type of data set: in vivo, mouse. Particulars: transgenic mice, 2 hours after treatment, 1×2 mg/kg, p<0.05. The method, then: as §2, §3

“Also recorded” adds a separate entry of the source.

As to `Cc1ccccc1C1=CCN(C)CC1` [2′-CH3-MPTP, 1-methyl-4-(2′-methylphenyl)-1,2,3,6-tetrahydropyridine], the “increase in relative fluorescence (RF), mean, compared to 0 hr” value in data set [1] (single dose 12 mg/kg sc, neonatal mice, P<0.0001) came to 17%. Besides, in data set [1] (single dose 12 mg/kg sc, neonatal mice, brain ROI), the “increase in relative fluorescence (RF), mean, over the control group” value stood at 22%. The “difference in relative fluorescence (RF) between treated and control group” value in data set [1] (single dose 12 mg/kg sc, at 4 hr, 6 hr and 8 hr after treatment) was “significant difference”. The “TH immuno-positive fibers and cell bodies / TH-like immunoreactivity” value in data set [2] is reported as “No visual reduction; also recorded: No obvious changes”. For the same compound, in data set [3] (SNC sections, 6 hr post-treatment as compared to 0 hr, 12 mg/kg sc), the “expression of the GFAP-GFP transgene in the astrocytes” value is reported as “up-regulation”. Besides, the “GFP expression in the astrocytes” value in data set [3] (ventricle and hippocampus area, 6 hr after one-time 12 mg/kg sc) is recorded as “evidently increased”.

For `C=C(C)[C@H]1CN[C@H](C(=O)O)[C@H]1CC(=O)O` [KA, Kainic acid], the “increase in relative fluorescence (RF), mean, compared to 0 hr” value in data set [1] (single dose 2 mg/kg sc, P<0.05) turned out to be 22%. In addition, the “increase in relative fluorescence (RF), mean, over the control group” value in data set [1] (single dose 2 mg/kg sc, neonatal mice) is recorded as 25%. In addition, the “difference in relative fluorescence (RF) between treated and control group” value in data set [1] (single dose 2 mg/kg sc, at 4 hr and 6 hr after treatment) is reported as “significant difference”. In data set [4], the “enhancement in gene expression of GFAP” value is “about 21%”. In addition, in data set [3] (various areas of the hippocampus (CA1, CA2, CA3), 6 hr after one-time 2 mg/kg sc), the “GFP expression in the astrocytes” value was “evidently increased”. Besides, in data set [5], the “enhancement in gene expression of GFP” value is around 22%.

Consider `CN1CC=C(c2ccccc2)CC1` [MPTP, 1-methyl-4-phenyl-1,2,3,6-tetrahydropyridine], for which, in data set [1] (single dose 12 mg/kg sc, neonatal transgenic mice (FIG. 9)), the “difference in RF between the different time intervals” value was “no significant difference”.
